According to PubChem BioAssay (NCI):
Where “and” joins values, the source holds several entries; their conditions need not be identical. Equal values may be shown once.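 Cultured in 96-well plates, cells were exposed to test compound for 48 hours across five concentrations. Here, GI50 denotes the concentration required for 50% inhibition of growth. TGI: concentration producing complete growth inhibition.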

The compounds below were run on LXFL 529 NSCLC (assay: inhibition of tumour cell growth, NCI panel, 48 h).

For `Clc1ccc2c(c1)[nH]c1c2nc2ccccn21`, the GI50 was 35.9 µM and 16.2 µM.

For `Clc1ccc2c(c1)[nH]c1c2nc2ccccn21`, the TGI was > 100 µM and 30 µM.

`CCOC(=O)c1cnc2c(ccc3[nH]n(C)nc32)c1=O` and `Cc1cn2c(=O)c3ncn(C4OC(CO)C(O)C4O)c3n(C)c2n1` (stereo unspecified) cannot be ordered by TGI: over 100 µM for the first, over 100 µM for the second.

`NC(=S)N/N=C(\CC1OC(=O)c2ccccc21)c1ccc(Cl)cc1` (stereo unspecified) and `CC1(C)COC(C2(C)C(=O)C=C(c3ccccc3)c3ccccc32)=N1` (stereo unspecified) cannot be ordered by TGI: over 100 µM for the first, over 100 µM for the second.

`COc1ccc2occ(CCC(=O)O)c2c1` and `CCC(=O)CC(=O)CCC(=O)Nc1cc(C)ccc1C` cannot be ordered by TGI: over 100 µM for the first, over 100 µM for the second.

`COC(=O)C(C(=O)c1ccccc1)C(C(=O)C(=O)Nc1ccc(OC)cc1OC)C(=O)C(=O)c1ccc(C)cc1` (stereo unspecified) and `Cc1ccc(S(=O)(=O)N(C=O)N=C2CCN(Cc3ccccc3)CC2)cc1` cannot be ordered by TGI: over 100 µM for the first, over 100 µM for the second.

`O=C(Nc1ccn(CCO)c(=O)n1)c1ccccc1` and `O=C1c2ccccc2C(=O)N1CCn1ccc(NC(c2ccccc2)(c2ccccc2)c2ccccc2)nc1=O` cannot be ordered by TGI: over 100 µM for the first, over 100 µM for the second.

`O=C1CCC2(c3ccc(Cl)cc3)Nc3ncccc3N12` (stereo unspecified) and `CN1CC(=O)N2Cc3ccccc3-n3cccc3C2C1` (stereo unspecified) cannot be ordered by TGI: over 100 µM for the first, over 100 µM for the second.

`CC12C/C(=C\c3ccccc3)C(=O)C3C1CCCC32` and `OC(CC1SCCCS1)c1ccccc1` (stereo unspecified) cannot be ordered by TGI: over 100 µM for the first, over 100 µM for the second.

First: CCCCOC(=O)CNC(=O)OC/C=C/C#CC#C/C=C/COC(=O)NCC(=O)OCCCC
Second: Nc1nc(Cl)cc(NCCCCCCCCNc2cc(Cl)nc(N)n2)n1
The TGI of the first is higher: over 100 µM for the first, 27.1 µM for the second.

Going from `COc1cccc2c1C(=O)c1c(O)c3c(c(O)c1C2=O)C[C@@](O)(C(=O)CO)C[C@@H]3OC1CC(N)CC(C)O1` (stereo partly specified) to `CCC12CCCN(Cc3ccccc3)C1c1c(n(C)c3ccccc13)CC2` (stereo unspecified), the TGI rises from 0.951 µM to over 253 µM.

Compared with `CC(C)(C)NNC(=O)CCn1[nH]c(=O)c(Cl)c(Cl)c1=O`, `CC(=O)CCn1ncc(Cl)c(Cl)c1=O` is lower in TGI: over 100 µM for the first, 27.3 µM for the second.

Compared with `CCN(CC)CCCN1CCc2c([nH]c3ccccc23)C1c1cccnc1` (stereo unspecified), `O=c1/c(=C/c2ccccc2[N+](=O)[O-])sc2nnc(-c3ccco3)n12` is lower in TGI: over 100 µM for the first, 34.5 µM for the second.

`CC(C)N(C(=O)C12C3C4C1C1C4(C#N)C3C12C#N)C(C)C` (stereo unspecified) and `CC(C)C(CCl)NC(=O)c1cccc(C(=O)N[C@H](CCl)C(C)C)n1` (stereo in doubt) cannot be ordered by TGI: over 100 µM for the first, over 100 µM for the second.

Compound `O=C1CCC(Cl)=CC2CCCN12` (stereo unspecified) has a TGI of over 100 µM.

Work on `CCCCOC(=O)CNC(=O)OC/C=C/C#CC#C/C=C/COC(=O)NCC(=O)OCCCC` yielded a GI50 of over 100 µM.

What follows are compounds tested on M19-MEL melanoma (assay: inhibition of tumour cell growth, NCI panel, 48 h).

For `Clc1ccc2c(c1)[nH]c1c2nc2ccccn21`, the GI50 was 42.3 µM and 20.1 µM.

In the case of `Clc1ccc2c(c1)[nH]c1c2nc2ccccn21`, the TGI is reported as > 100 µM and 47.6 µM.
For `COc1cccc2c1C(=O)c1c(O)c3c(c(O)c1C2=O)C[C@@](O)(C(=O)CO)C[C@@H]3OC1CC(N)CC(C)O1` (stereo partly specified), the TGI was 0.186 µM and 0.174 µM.
With `CN(C)CCNC(=O)c1cccc2ccc(-c3ccc(O)cc3)nc12` the TGI was 7.04 µM and 6.83 µM.

`CCOC(=O)c1cnc2c(ccc3[nH]n(C)nc32)c1=O` and `CCN(CC)CCCN1CCc2c([nH]c3ccccc23)C1c1cccnc1` (stereo unspecified) cannot be ordered by TGI: over 100 µM for the first, over 100 µM for the second.

Going from `NC(=S)N/N=C(\CC1OC(=O)c2ccccc21)c1ccc(Cl)cc1` (stereo unspecified) to `CC1(C)COC(C2(C)C(=O)C=C(c3ccccc3)c3ccccc32)=N1` (stereo unspecified), the TGI rises from 66.1 µM to over 100 µM.

`COc1ccc2occ(CCC(=O)O)c2c1` and `O=C(Nc1ccn(CCO)c(=O)n1)c1ccccc1` cannot be ordered by TGI: over 100 µM for the first, over 100 µM for the second.

`COC(=O)C(C(=O)c1ccccc1)C(C(=O)C(=O)Nc1ccc(OC)cc1OC)C(=O)C(=O)c1ccc(C)cc1` (stereo unspecified) and `c1ccc2cc(-c3cc4ccccc4s3)ccc2c1` cannot be ordered by TGI: over 100 µM for the first, over 100 µM for the second.

`O=C1CCC2(c3ccc(Cl)cc3)Nc3ncccc3N12` (stereo unspecified) and `Cc1ccc(S(=O)(=O)N(C=O)N=C2CCN(Cc3ccccc3)CC2)cc1` cannot be ordered by TGI: over 100 µM for the first, over 100 µM for the second.

`CC12C/C(=C\c3ccccc3)C(=O)C3C1CCCC32` and `OC(CC1SCCCS1)c1ccccc1` (stereo unspecified) cannot be ordered by TGI: over 100 µM for the first, over 100 µM for the second.

`CCCCOC(=O)CNC(=O)OC/C=C/C#CC#C/C=C/COC(=O)NCC(=O)OCCCC` and `Nc1nc(Cl)cc(NCCCCCCCCNc2cc(Cl)nc(N)n2)n1` cannot be ordered by TGI: over 100 µM for the first, over 100 µM for the second.

Compared with `O=C1c2ccccc2C(=O)N1CCn1ccc(NC(c2ccccc2)(c2ccccc2)c2ccccc2)nc1=O`, `CCC12CCCN(Cc3ccccc3)C1c1c(n(C)c3ccccc13)CC2` (stereo unspecified) is higher in TGI: 32.6 µM for the first, over 253 µM for the second.

`CC(C)(C)NNC(=O)CCn1[nH]c(=O)c(Cl)c(Cl)c1=O` and `CC(C)C(CCl)NC(=O)c1cccc(C(=O)N[C@H](CCl)C(C)C)n1` (stereo in doubt) cannot be ordered by TGI: over 100 µM for the first, over 100 µM for the second.

`CC(C)N(C(=O)C12C3C4C1C1C4(C#N)C3C12C#N)C(C)C` (stereo unspecified) and `O=C1CCC(Cl)=CC2CCCN12` (stereo unspecified) cannot be ordered by TGI: over 100 µM for the first, over 100 µM for the second.

With `O=c1/c(=C/c2ccccc2[N+](=O)[O-])sc2nnc(-c3ccco3)n12` the TGI was 38.3 µM.

Compared with `CCCCOC(=O)CNC(=O)OC/C=C/C#CC#C/C=C/COC(=O)NCC(=O)OCCCC`, `COc1cccc2c1C(=O)c1c(O)c3c(c(O)c1C2=O)C[C@@](O)(C(=O)CO)C[C@@H]3OC1CC(N)CC(C)O1` (stereo partly specified) is lower in GI50: over 100 µM for the first, 0.0363 µM for the second.

`CN(C)CCNC(=O)c1cccc2ccc(-c3ccc(O)cc3)nc12` showed a GI50 of 2.12 µM.
